# The supplement of paper PMC11208160
# Assay: recombinant UMI read abundance after kanamycin selection (control-corrected) (log10(CPM+1)); higher = more efficient recombination; extreme values may be limits of the assay; sequences stand for … in AGTGCAGAGAAAATCGGCCAGTTTTCTCTGCCTGCAGTCCGCATGCCGTGGGACCCCTTGGGTTCTAACCTGTTGCCTAGATTTATGCAGCGGACTGCCTTTCTCCCAAAGTGATAAACCGG…AGGTTGGTTTCACT; site = the 11-nt donor
# Outline: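 Pooled Escherichia coli screen of donor and donor-binding-loop pairs for the IS621 bridge recombinase. Each pair sits with a 12-nt UMI on a plasmid carrying a promoterless kanamycin gene. The library was co-electroporated with a target plasmid encoding a fixed target and T7-inducible recombinase, then plated with IPTG (0.07 mM) plus kanamycin, or unselected, each in two replicates. Recombinant UMIs were PCR-amplified across the donor–target junction and sequenced. Counts became CPM, averaged over replicates, scaled by control-derived factors and reported as log10(CPM+1).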
row,Sequence,recombinant UMI read abundance (log10)
1,GATTGGACATGGACCGGTTTTCCCGGTAATCCGTATTTGAC (site GGTTGGACTGT),0.928
2,GATTGGACATGGACCGGTTTTCCCGGTAATCCGTATTTGAC (site GTTTGGACTGT),0
3,GATTGGACATGGACCGGTTTTCCCGGTAATCCGTATTTGAC (site TATTGGACTGT),1.83
4,GATTGGACATGGACCGGTTTTCCCGGTAATCCGTATTTGAG (site GATTGGACTAT),0.00853
5,GATTGGACATGGACCGGTTTTCCCGGTAATCCGTATTTGAG (site GATTGGACTCT),1.33
6,GATTGGACATGGACCGGTTTTCCCGGTAATCCGTATTTGAG (site GATTGGACTGT),0
7,GATTGGACATGGACCGGTTTTCCCGGTAATCCGTATTTGAG (site GATTGGACTTT),0.0197
8,GATTTATCATGGACCGGTTTTCCCGGTAATCCGTATTTGAA (site GATTTATCTTT),1.64
9,GATTTATCATGGACCGGTTTTCCCGGTAATCCGTATTTGGC (site GATTTATCTGC),1.38
10,GATTTGGCATGGACCGGTTTTCCCGGTAATCCGTATTTGTC (site GATTTGGCTGA),0
11,GCAACCTCATGGACCGGTTTTCCCGGTAATCCGTATTTGCC (site GCAACCTCTGG),0.0535
12,GCAACGCCATGGACCGGTTTTCCCGGTAATCCGTATTTGTA (site GCAACGCCTTA),0.399
13,GCAACGCCATGGACCGGTTTTCCCGGTAATCCGTATTTGTA (site GCCACGCCTTA),0.026
14,GCAACGCCATGGACCGGTTTTCCCGGTAATCCGTATTTGTA (site GCGACGCCTTA),0.015
15,GCAACGCCATGGACCGGTTTTCCCGGTAATCCGTATTTGTA (site GCTACGCCTTA),0.0211
16,GCAAGAGCATGGACCGGTTTTCCCGGTAATCCGTATTTGGC (site GCAAGAGCTGC),1.82
17,GCAAGATCATGGACCGGTTTTCCCGGTAATCCGTATTTGGA (site GCAAGATCTTC),1.69
18,GCAAGCTCATGGACCGGTTTTCCCGGTAATCCGTATTTGTG (site GCAAGCTCTCA),2.55
19,GCACGACCATGGACCGGTTTTCCCGGTAATCCGTATTTGCA (site GCACGACCTTG),0

row,Sequence,recombinant UMI read abundance (log10)
1,GCACGTTCATGGACCGGTTTTCCCGGTAATCCGTATTTGGC (site GCACGTTCTGC),2.74
2,GCACTTGCATGGACCGGTTTTCCCGGTAATCCGTATTTGGC (site GCACTTGCTGC),2.1
3,GCAGAATCATGGACCGGTTTTCCCGGTAATCCGTATTTGCA (site ACAGTATCTTG),1.67
4,GCAGAATCATGGACCGGTTTTCCCGGTAATCCGTATTTGCA (site GCAGAATCTTG),2.13
5,GCAGACACATGGACCGGTTTTCCCGGTAATCCGTATTTGAT (site GCAGACACTAT),1.89
6,GCAGACCCATGGACCGGTTTTCCCGGTAATCCGTATTTGAT (site GCAGACCCTAT),0.819
7,GCAGACCCATGGACCGGTTTTCCCGGTAATCCGTATTTGGG (site GCAGACCCTCC),0.0178
8,GCAGAGACATGGACCGGTTTTCCCGGTAATCCGTATTTGCG (site ACAGAGACTCG),2.51
9,GCAGAGACATGGACCGGTTTTCCCGGTAATCCGTATTTGCG (site CCAGAGACTCG),2.58
10,GCAGAGACATGGACCGGTTTTCCCGGTAATCCGTATTTGCG (site GCAGAGACTCG),2.45
11,GCAGAGACATGGACCGGTTTTCCCGGTAATCCGTATTTGCG (site TCAGAGACTCG),2.34
12,GCAGCCCCATGGACCGGTTTTCCCGGTAATCCGTATTTGCT (site GCAGCCCCTAG),2.32
13,GCAGCGGCATGGACCGGTTTTCCCGGTAATCCGTATTTGCC (site GCAGCGGCTGG),1.22
14,GCAGGAGCATGGACCGGTTTTCCCGGTAATCCGTATTTGGA (site GCAGGAGCTTC),1.41
15,GCAGGCACATGGACCGGTTTTCCCGGTAATCCGTATTTGCA (site GCAGGCACTTG),2.39
16,GCAGGCGCATGGACCGGTTTTCCCGGTAATCCGTATTTGCG (site GCAGGCGCTCG),2.03
17,GCAGGTGCATGGACCGGTTTTCCCGGTAATCCGTATTTGGC (site GCAGGTGCTGC),1.53
18,GCAGTATCATGGACCGGTTTTCCCGGTAATCCGTATTTGCT (site ACAGTATCTTG),0
19,GCAGTATCATGGACCGGTTTTCCCGGTAATCCGTATTTGCT (site GCAGTATCTAG),2.7

row,Sequence,recombinant UMI read abundance (log10)
1,GCAGTGTCATGGACCGGTTTTCCCGGTAATCCGTATTTGAT (site GCAGTGTCTAT),2.82
2,GCAGTTACATGGACCGGTTTTCCCGGTAATCCGTATTTGGA (site GCAGTTACTTC),1.1
3,GCATAGACATGGACCGGTTTTCCCGGTAATCCGTATTTGCC (site GAATAGACTGG),0.0508
4,GCATAGACATGGACCGGTTTTCCCGGTAATCCGTATTTGCC (site GCATAGACTGG),1.74
5,GCATAGACATGGACCGGTTTTCCCGGTAATCCGTATTTGCC (site GGATAGACTGG),0
6,GCATAGACATGGACCGGTTTTCCCGGTAATCCGTATTTGCC (site GTATAGACTGG),0
7,GCATGGTCATGGACCGGTTTTCCCGGTAATCCGTATTTGGA (site GCATGGTCTTC),1.31
8,GCATGTGCATGGACCGGTTTTCCCGGTAATCCGTATTTGGT (site GCATGTGCTAC),1.79
9,GCATTGACATGGACCGGTTTTCCCGGTAATCCGTATTTGTT (site GCATTGACTAA),1.4
10,GCCAACTCATGGACCGGTTTTCCCGGTAATCCGTATTTGTT (site GCCAACTCTAA),1.65
11,GCCAAGCCATGGACCGGTTTTCCCGGTAATCCGTATTTGCC (site GCCAAGCCTGG),0
12,GCCAAGTCATGGACCGGTTTTCCCGGTAATCCGTATTTGGG (site GCCAAGTCTCC),0.538
13,GCCAATTCATGGACCGGTTTTCCCGGTAATCCGTATTTGCC (site ACCAATTCTGG),0
14,GCCAATTCATGGACCGGTTTTCCCGGTAATCCGTATTTGCC (site CCCAATTCTGG),0
15,GCCAATTCATGGACCGGTTTTCCCGGTAATCCGTATTTGCC (site GCCAATTCTGG),0.426
16,GCCAATTCATGGACCGGTTTTCCCGGTAATCCGTATTTGCC (site TCCAATTCTGG),0
17,GCCACACCATGGACCGGTTTTCCCGGTAATCCGTATTTGTA (site GCCACACCTTA),0.0107
18,GCCACACCATGGACCGGTTTTCCCGGTAATCCGTATTTGTA (site GCCACCCCTTA),0.00331
19,GCCACACCATGGACCGGTTTTCCCGGTAATCCGTATTTGTA (site GCCACGCCTTA),0.00626
